Source: patent US6689792B2, “Antipsychotic indolyl derivatives” (Wyeth, priority 1998, dated 2004)
Structures can show the parent of a compound that is named as a salt.

Columns and labels:
human 5HT1A receptor = molecular target: T1, human 5HT1A receptor (Homo sapiens, UniProt P08908); assay: [3H] 8-OH-DPAT displacement binding in CHO cells transfected with human 5HT1A receptor; conditions: [3H] 8-OH-DPAT 1.5 nM
T1 construct: expressed in transfected cells
T1 sequence (P08908 1-422): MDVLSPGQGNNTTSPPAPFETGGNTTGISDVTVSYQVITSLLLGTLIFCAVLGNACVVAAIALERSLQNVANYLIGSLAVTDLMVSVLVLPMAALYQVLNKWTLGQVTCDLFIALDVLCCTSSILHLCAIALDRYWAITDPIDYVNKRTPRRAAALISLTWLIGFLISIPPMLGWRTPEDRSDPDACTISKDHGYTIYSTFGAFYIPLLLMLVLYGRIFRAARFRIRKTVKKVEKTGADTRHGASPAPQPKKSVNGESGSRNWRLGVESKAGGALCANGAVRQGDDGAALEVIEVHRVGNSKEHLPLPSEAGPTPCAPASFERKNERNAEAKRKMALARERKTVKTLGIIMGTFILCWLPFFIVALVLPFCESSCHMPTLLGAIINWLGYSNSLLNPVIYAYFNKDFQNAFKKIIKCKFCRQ
Description: 8-OH-DPAT binding in CHO cells stabily transfected with human 5HT1A receptor. Stabily transfected CHO cells are grown in DMEM containing 10% heat inactivated FBS and non-essential amino acids. Cells are scraped off the plate, transferred to centrifuge tubes, and washed twice by centrifugation (2000 rpm for 10 min., 4° C.) in buffer (50 mM Tris pH 7.5). The resulting pellets are aliquoted and placed at −80° C. On the day of assay, the cells are thawed on ice and resuspended in buffer. The binding assay is performed in a 96 well microtiter plate in a total volume of 250 μL. […] Following a 30 minute incubation at room temperature, the reaction is terminated by the addition of ice cold buffer and rapid filtration through a GF/B filter presoaked for 30 minutes in 0.5% PEI.

serotonin transporter = molecular target: T2, serotonin transporter (Rattus norvegicus, UniProt P31652); assay: 3H-Paroxetine binding to rat frontal cortical membranes; conditions: read-out: SSRi % Inhibition (rat brain) at 0.1 μM
T2 construct: frontal cortical membranes prepared from male S.D. rats; from tissue; host or cells: frontal cortical membranes of male Sprague-Dawley rats
T2 sequence (P31652 whole entry): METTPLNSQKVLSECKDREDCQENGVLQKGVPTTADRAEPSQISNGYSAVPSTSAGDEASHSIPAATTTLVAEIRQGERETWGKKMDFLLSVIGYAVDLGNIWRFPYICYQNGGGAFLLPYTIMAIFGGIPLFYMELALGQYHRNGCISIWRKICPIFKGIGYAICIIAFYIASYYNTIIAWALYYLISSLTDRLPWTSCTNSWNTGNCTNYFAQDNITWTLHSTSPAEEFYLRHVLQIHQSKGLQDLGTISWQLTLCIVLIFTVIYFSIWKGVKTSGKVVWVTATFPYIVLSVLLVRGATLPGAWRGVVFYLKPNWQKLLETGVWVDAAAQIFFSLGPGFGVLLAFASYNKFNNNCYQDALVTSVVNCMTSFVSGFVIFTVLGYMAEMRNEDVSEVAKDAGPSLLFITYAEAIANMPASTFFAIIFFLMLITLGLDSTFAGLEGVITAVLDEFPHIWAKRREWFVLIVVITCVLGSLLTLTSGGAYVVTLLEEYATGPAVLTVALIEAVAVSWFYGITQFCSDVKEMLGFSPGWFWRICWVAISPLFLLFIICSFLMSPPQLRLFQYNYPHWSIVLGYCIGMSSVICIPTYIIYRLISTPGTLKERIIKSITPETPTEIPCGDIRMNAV
Description: ^3H-Paroxetine binding to assess affinity of drugs for the serotonin transporter
A protocol similar to that used by Cheetham et al. (Neuropharmacol. 32:737, 1993) was used to determine the affinity of compounds for the serotonin transporter. Briefly, frontal cortical membranes prepared from male S.D. rats were incubated with ^3H-paroxetine (0.1 nM) for 60 min at 25° C. All tubes also contained either vehicle, test compound (one to eight concentrations), or a saturating concentration of fluoxetine (10 μM) to define […]. All reactions are terminated by the addition of ice cold Tris buffer followed by rapid filtration using a Tom Tech filtration device to separate bound from free ^3H-paroxetine. Bound radioactivity was quantitated using a Wallac 1205 Beta Plate® counter. Results achieved are expressed below as % inhibition of Paroxetine binding at a given concentration.

[1] = molecular target: T3, human dopamine D2 receptor (Homo sapiens, UniProt P14416); assay: [3H]-Spiperone displacement binding in CHO cells transfected with human dopamine D2 receptor; conditions: [3H]-Spiperone 0.5 nM, CHO cell membranes
T3 construct: expressed in transfected cells
T3 sequence (P14416 whole entry): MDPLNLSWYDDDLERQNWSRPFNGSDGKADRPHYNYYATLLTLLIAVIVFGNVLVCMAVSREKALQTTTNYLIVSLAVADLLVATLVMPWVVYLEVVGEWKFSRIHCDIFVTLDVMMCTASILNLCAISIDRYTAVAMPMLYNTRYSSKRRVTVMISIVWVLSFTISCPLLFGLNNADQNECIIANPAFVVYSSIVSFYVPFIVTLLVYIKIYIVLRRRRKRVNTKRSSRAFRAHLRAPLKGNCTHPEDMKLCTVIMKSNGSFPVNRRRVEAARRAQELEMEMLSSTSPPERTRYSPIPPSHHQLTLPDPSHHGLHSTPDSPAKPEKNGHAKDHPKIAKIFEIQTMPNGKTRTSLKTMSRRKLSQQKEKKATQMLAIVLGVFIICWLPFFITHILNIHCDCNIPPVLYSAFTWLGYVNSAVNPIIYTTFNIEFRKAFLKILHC
Description: CHO cells expressing the human dopamine D2 receptor were cultured in suspension by expansion (every 3-4 days) in a serum free media to provide approximately 7.5×10^5 cells/ml. The cells were harvested by centrifugation (900×g for 10 min.), resuspended in half volume of 1×dulbecco PBS solution at pH 7.4, and after a further recentrifugation, the cell pellet was resuspended in 50 mM Tris.HCl (pH 7.4) containing 1.5 mM CaCl2, 5.0 mM EDTA, 5.0 mM KCl, 120 mM NaCl, 1.0 mM PMSF and 1.0 mg % leupeptin. The cells were homogenized, centrifuged at 40,000×g for 30 minutes and resuspended in fresh buffer (10 ml), and the process repeated twice. […] The binding assay is performed in a 96 well microtiter plate. 100 μl of buffer is added to the wells, and those receiving a displacer for nonspecific binding (NSB) assessment or test compounds receive 80 μl of incubation buffer. […] The reaction is initiated by the addition of 80 μl of the tissue membrane, and after 120 minutes at room temperature the wells are harvested using a Brandell® Harvester onto glass fiber filter presoaked in 0.1% polyethylimine.

SMILES | melting point | Ki (human 5HT1A receptor) | inhibition at 0.1 µM (serotonin transporter) | Ki [1]
O=[N+]([O-])c1ccc(OCC(O)CN2CCN(c3cccc4[nH]ccc34)CC2)cc1 (stereo not shown) (as salt: HCl) [Example 4, 1-[4-(1H-Indol-4-yl)-piperazin-1-yl]-3-(4-nitro-phenoxy)-propan-2-ol] | 248 °C |  |  | 
OC(COc1cccc2[nH]ccc12)CN1CCN(c2cccc3[nH]ccc23)CC1 (stereo not shown) (as salt: fumaric acid salt) [Example 1, 1-(1H-Indol-4-yloxy)-3-[4-(1H-indol-4-yl)piperazin-1-yl]-propan-2-ol] | 147 to 150 °C |  |  | 
OC(COc1ccc(Cl)cc1)CN1CCN(c2cccc3[nH]ccc23)CC1 (stereo not shown) (as salt: fumaric acid salt) [Example 2, 1-(4-Chloro-phenoxy)-3-[4-(1H-indol-4-yl)piperazin-1-yl]-propan-2-ol] | 224 to 225 °C |  |  | 
OC(COc1ccccc1Cl)CN1CCN(c2cccc3[nH]ccc23)CC1 (stereo not shown) (as salt: fumaric acid salt) [Example 5, 1-(2-Chloro-phenoxy)-3-[4-(1H-indol-4-yl)piperazin-1-yl]-propan-2-ol] | 207 °C |  |  | 
OC(COc1ccc(F)cc1)CN1CCN(c2cccc3[nH]ccc23)CC1 (stereo not shown) (as salt: fumaric acid salt) [Example 6, 1-(4-Fluoro-phenoxy)-3-[4-(1H-indol-4-yl)piperazin-1-yl]-propan-2-ol] | 234 to 235 °C |  |  | 
OC(COc1ccccc1-c1ccccc1)CN1CCN(c2cccc3[nH]ccc23)CC1 (stereo not shown) (as salt: fumaric acid salt) [Example 8, 1-(Biphenyl-2-yloxy)-3-[4-(1H-indol-4-yl)piperazin-1-yl]-propan-2-ol] | 214 to 215 °C |  |  | 
OC(COc1cccc2[nH]ccc12)CN1CCN(c2cccc3[nH]ccc23)CC1 (stereo not shown) [Example 1, 1-(1H-Indol-4-yloxy)-3-[4-(1H-indol-4-yl)piperazin-1-yl]-propan-2-ol] |  | 6 nM | 32% | 
OC(COc1ccc(Cl)cc1)CN1CCN(c2cccc3[nH]ccc23)CC1 (stereo not shown) [Example 2, 1-(4-Chloro-phenoxy)-3-[4-(1H-indol-4-yl)piperazin-1-yl]-propan-2-ol] |  | 7.6 nM | 13% | 33.5 nM
COc1ccc(OCC(O)CN2CCN(c3cccc4[nH]ccc34)CC2)cc1 (stereo not shown) [Example 3, 1-[4-(1H-Indol-4-yl)-piperazin-1-yl]-3-(4-methoxy-phenoxy)-propan-2-ol] |  | 1.8 nM | 17% | 
O=[N+]([O-])c1ccc(OCC(O)CN2CCN(c3cccc4[nH]ccc34)CC2)cc1 (stereo not shown) [Example 4, 1-[4-(1H-Indol-4-yl)-piperazin-1-yl]-3-(4-nitro-phenoxy)-propan-2-ol] |  | 8.8 nM | 15% | 
OC(COc1ccccc1Cl)CN1CCN(c2cccc3[nH]ccc23)CC1 (stereo not shown) [Example 5, 1-(2-Chloro-phenoxy)-3-[4-(1H-indol-4-yl)piperazin-1-yl]-propan-2-ol] |  | 12.1 nM | 11% | 31.9 nM
OC(COc1ccc(F)cc1)CN1CCN(c2cccc3[nH]ccc23)CC1 (stereo not shown) [Example 6, 1-(4-Fluoro-phenoxy)-3-[4-(1H-indol-4-yl)piperazin-1-yl]-propan-2-ol] |  | 10.4 nM | 0% | 10.4 nM
NC(=O)c1cc2c(OCC(O)CN3CCN(c4cccc5[nH]ccc45)CC3)cccc2[nH]1 (stereo not shown) [Example 7, 4 {2-Hydroxy-3-[4-(1H-indol-4-yl)-piperazin-1-yl]propoxy}-1H-indole-2-carboxylic acid amide] |  | 7.2 nM | 3% | 
OC(COc1ccccc1-c1ccccc1)CN1CCN(c2cccc3[nH]ccc23)CC1 (stereo not shown) [Example 8, 1-(Biphenyl-2-yloxy)-3-[4-(1H-indol-4-yl)piperazin-1-yl]-propan-2-ol] |  | 4.5 nM | 0% | 
